Experimental data reported in patent publication US10231939B2, “Hydroxytyrosol and oleuropein compositions for induction of DNA damage, cell death and LSD1 inhibition” (priority 2012, dated 2019).
Where “and” joins values, the source holds several entries; their conditions need not be identical. Equal values may be shown once.

Experiments:
K562 cells [1] = test: Apo-ONE Homogeneous Caspase 3/7 assay, K562; assay type: cell-based, human
Experimental: Apoptosis was determined by cell lysis prior to measuring caspase-3/7 enzymatic activity with Apo-ONE Homogeneous Caspase-3/7 Assay kit (Promega, Wis., USA), according to the manufacturer's instructions. Following determination of growth inhibition as described above, Apo-1 substrate/buffer mix was added to each well at a ratio of 1:1 and incubated for 4 hours on a rotating platform in the dark at 22° C. The fluorescence intensity (λex=485 nm and λem=525 nm) was determined on a Victor3 multilabel plate counter (PerkinElmer, Waltham, Mass., USA). Apoptosis was reported as the change in fluorescence over 4 hours and after subtraction of the media control.

K562 cells [2] = test: Total Antioxidant Capacity Assay, K562; assay type: cell-based, human; details: 50 μM hydroxytyrosol or Formulation 2 (4× diluted), 24 hours
LSD1 = LSD1 (Homo sapiens, UniProt O60341); test: LSD1 Demethylase Profiling (HRP/Amplex Red); assay type: biochemical; details: for LSD1 inhibition (in words): 10-dose, 3-fold serial dilution starting at 100 μM, 10 μM Histone H3 (1-21) K4me2 peptide
Experimental: Formulation 2 (4× diluted) was tested against positive control tranylcypromine for LSD1 inhibition activity. […] The production of FAD-dependent H2O2 as a result of demethylase activity of LSD1 is measured by coupling with HRP and Amplex Red and fluorescence was measured using the EnVision plate reader at Ex/Em=535/590 nm. 10 μM Histone H3 (1-21) K4me2 peptide was used as the standard substrate. Data was represented at the percentage of LSD1 enzymatic activity inhibition relative to DMSO controls and a curve fit for the control compound.
Hydroxytyrosol was tested against positive control tranylcypromine for LSD1 inhibition activity. […] The production of FAD-dependent H2O2 as a result of demethylase activity of LSD1 is measured by coupling with HRP and Amplex Red and fluorescence was measured using the EnVision plate reader at Ex/Em=535/590 nm. 10 μM Histone H3 (1-21) K4me2 peptide was used as the standard substrate. Data was represented at the percentage of LSD1 enzymatic activity inhibition relative to DMSO controls and a curve fit for the control compound.

[3] = Cell viability (Cell-Titer Blue), PBMC; assay type: cell-based; details: human, PBMC (peripheral blood mononuclear cells), hydroxytyrosol 20 or 100 μM
Experimental: Cells were seeded at densities of 7,500 cells/in black flat bottom 96-well plates (Nalge Nunc, Penfield, N.Y., USA) and treated with a dose response of hydroxytyrosol (0-200 μM), oleuropein (0-800 μM), tyrosol (0-1000 μM) and homovanilic acid (0-1000 μM) for 24 hours at 37° C., 5% (v/v) CO2. Cell viability was determined after 24 hour exposure to hydroxytyrosol and measured using the Cell-Titer Blue® Assay kit (Promega, Madison, Wis., USA) according to the manufacturer's instructions. Cell-Titer Blue reagent was added to each well and incubated for 4 hours at 37° C., 5% CO2, before reading fluorescence intensity (550 nm excitation; 615 nm emission) using the Perkin Elmer Victor3 (Perkin Elmer, MA, USA) multi-label plate reader.

human keratinocytes = test: mRNA-Sequencing, human keratinocytes; assay type: cell-based
Experimental: Human chronic myelogenous leukemia K562 cells (ATCC No. CCL-243) were obtained from the American Type Culture Collection (Manassas, Va., USA) and maintained in complete-[…] Park Memorial Institute (RPMI) 1640 medium supplemented with 20 mmol/L HEPES (pH 7.4; GIBCO-Invitrogen, Carlsbad, Calif., USA), 10% (v/v) fetal bovine serum (FBS), 2 mmol/L L-glutamine (GIBCO-Invitrogen), and 80 units gentamicin (GIBCO-Invitrogen). Cells were cultured in suspension in a humidified atmosphere of 5% (v/v) CO2 at 37° C. and were maintained in exponential growth phase. For maintenance, cells were passaged twice per week and seeded at ratios 1:10. Human neonatal foreskin keratinocytes transfected with the human papilloma virus (HPV) were grown as monolayers in keratinocyte—Serum Free Medium (SFM) medium (GIBCO-Invitrogen) supplemented with L-glutamine, human epidermal growth factor (EGF), and bovine pituitary extract (BPE) at 37° C., 5% (v/v) CO2. Cells were passaged by trypsinisation and seeded at ratio of 1:3. Cells were seeded at densities of 1×10^6/mL in culture flasks (Nalge Nunc, New York, USA) and treated with hydroxytyrosol (0, 20, 100 μM), for 24 hours at 37° C., 5% (v/v) CO2. mRNA sequencing was performed by TRIZOL extraction and library preparation using Illumina kits according to manufacturer's protocols. Next generation sequencing (NGS) was performed at a depth of approximately 20 million mapped reads per sample to determine the effect of hydroxytyrosol on genome-wide gene expression, in human erythroleukemic K562 cells and human keratinocytes (24 hr treatment, 20 and 100 μM). Reads generated by the Illumina base calling software V1.6 were aligned with Burrows Wheeler Aligner to the human transcriptome database curated by RefSeq (Hg18 build). Raw counts were normalized to adjust for slightly differing data volume across lanes giving the widely used score reads per transcript per million reads. These scores were used to determine relative fold changes and the conventionally used ±1.5 fold-change, which is discernible with qRT-PCR, was defined a significant change in expression. The online program MetaCore (GeneGo Inc. St. Joseph, MI, USA) was used for pathway analysis.

[4] = hydroxytyrosol 24 hr (20 μM per FIG. 18C)

OCCc1ccc(O)c(O)c1 [HT, 4-(2-hydroxyethyl)-1,2-benzenediol]
caspase 3/7 apoptotic activity (K562 cells [1]; K562, hydroxytyrosol 24 hours): significant dose dependent increase
caspase 3/7 mediated apoptosis (K562 cells [1]; K562, hydroxytyrosol or Formulation 2 (4× diluted), FIG. 25): significantly induce caspase 3/7 mediated apoptosis
total antioxidant capacity (K562 cells [2]): deplete total antioxidant capacity
LSD1 inhibition (in words) (LSD1; listed as Hydroxytyrosol): Hydroxytyrosol is a potent
LSD1 inhibition (in words) (LSD1; listed as hydroxytyrosol): potent inhibitor of LSD1
LSD1 inhibition compared with tranylcypromine (LSD1; positive control tranylcypromine): more effective LSD1 inhibitor against tranylcypromine
viability at 24 h [3]: 100%
heme oxygenase 1 (HMOX-1) up-regulated (human keratinocytes; hydroxytyrosol): 15 fold
number of genes whose expression is regulated (human keratinocytes; hydroxytyrosol): ~3 thousand genes
ELP3 expression Fold Change (UP) (human keratinocytes; [4]): 1.51 fold
HDAC5 expression Fold Change (UP) (human keratinocytes; [4]): 1.81 fold and 1.70 fold
HDAC9 expression Fold Change (UP) (human keratinocytes; [4]): 3.00 fold
HDAC11 expression Fold Change (UP) (human keratinocytes; [4]): 1.65 fold and 1.54 fold
JHDM1D expression Fold Change (UP) (human keratinocytes; [4]): 1.66 fold
KDM2B expression Fold Change (UP) (human keratinocytes; [4]): 1.64 fold and 1.55 fold
KDM3A expression Fold Change (UP) (human keratinocytes; [4]): 1.60 fold
KDM5D expression Fold Change (DOWN) (human keratinocytes; [4]): 2.00 fold
MLL3 expression Fold Change (DOWN) (human keratinocytes; [4]): 2.00 fold
NCOA1 expression Fold Change (UP) (human keratinocytes; [4]): 1.51 fold
PRDM1 expression Fold Change (UP) (human keratinocytes; [4]): 2.67 fold and 4.00 fold
PRDM4 expression Fold Change (UP) (human keratinocytes; [4]): 1.56 fold
PRDM8 expression Fold Change (UP) (human keratinocytes; [4]): 1.85 fold and 1.64 fold
PRDM11 expression Fold Change (UP) (human keratinocytes; [4]): 3.00 fold
PRDM12 expression Fold Change (DOWN) (human keratinocytes; [4]): 1.50 fold
PRMT8 expression Fold Change (DOWN) (human keratinocytes; [4]): 2.00 fold
SETBP1 expression Fold Change (DOWN) (human keratinocytes; [4]): 2.00 fold
SETDB2 expression Fold Change (UP) (human keratinocytes; [4]): 1.75 fold
SETMAR expression Fold Change (UP) (human keratinocytes; [4]): 1.53 fold
SMYD3 expression Fold Change (DOWN) (human keratinocytes; [4]): 1.55 fold
